Patent US6946588B2, “Nucleic acid encoding a modified threonine deaminase and methods of use” (Monsanto Technology LLC, priority 1996, dated 2005)

Experiments:
BktB β-ketothiolase = BktB β-ketothiolase (Cupriavidus necator, UniProt Q0KBP1); assay: Thiolysis kinetics of purified BktB β-ketothiolase; settings: 25° C.
Description: To enhance further our understanding of the kinetic characteristics of BktB β-ketothiolase, a thorough kinetic analysis of the enzyme's thiolysis activity was conducted using purified protein. The assay to determine the kinetic parameters Km and Vmax for βketobutyryl-CoA (C4), β-ketovaleryl-CoA (C5), and β-ketocaproyl-CoA (C6), was performed at 25° C. by the in situ generation of the β-keto compounds from their corresponding trans-2,3-enoyl-CoAs essentially as described by Haywood et al. (1988). Utilization of variable substrate concentrations permitted the determination of the descriptive kinetic parameters of the β-ketothiolase. Kinetic rates were determined only at fixed substrate concentrations in the Haywood et al. communication.
Purified BktB protein was prepared by growing E. coli […] transformed with pMON25754 in LB broth containing ampicillin (100μg/ml) overnight at 37° C. Cells were then harvested by centrifugation, and the pellet was resuspended in 50 mM KPi and 5% glycerol, sonicated, and the sonicate centrifuged to remove cellular debris. The cell extract was desalted using a PD-10 column (Pharmacia), and proteins resolved using a Pharmacia FPLC system and MonoQ anion-exchange column (Pharmacia). Buffer A was 10 mM Tris buffer, pH 7.8, plus 1 mM DTT; buffer B was buffer A plus 1 M KCl. The gradient was 0 to 10% B in 10 min, then to 35% B in 40 min. The flow rate was 1 ml/min, and the resolved proteins were collected at the rate of 1 ml/fraction. […] The enzyme was stored in 10 mM Tris-HCl, pH 7.8, 1 mM DTT, 50% glycerol at −20° C.
The C5 and C6 enoyl-CoAs were synthesized according to Schulz (1974) and purified using semi-prep C8-reverse-phase HPLC as described above for β-ketovaleryl-CoA. βketobutyryl-CoA (acetoacetyl-CoA) was purchased from Sigma (St. Louis, Mo.). The assay mixture (1 ml final volume) contained 150 mM EPPS, pH 8.0, 50 mM MgCl2, 1.5 mM pyruvate, 0.4 mM NAD+, and a coupling enzyme cocktail of three units crotonase, five units β-hydroxyacyl-CoA dehydrogenase, and 10 units lactic dehydrogenase. The enoyl-CoA was added to this mixture and the absorbance at 304 nm was monitored until it reached a plateau (typically about 5 min). CoA was added to this mixture, followed by BktB β-ketothiolase to initiate the reaction. The decrease in absorbance at 304 nm due to the thiolysis of the β-ketoacyl-CoA was utilized as a direct measure of activity. Extinction coefficients to convert absorbance units to μmol of product were 19.5, 12.2, and 14.0 cm^−1 mM^−1 for β-ketobutyryl-CoA, β-ketovaleryl-CoA, and β-ketocaproyl-CoA, respectively. β-ketoacyl-CoA concentration was varied from […] (CoA was fixed at 200 μM), and CoA concentration was varied from 20 to 400 μM (β-ketocaproyl-CoA was fixed at 60 μM) for determining kinetic parameters for β-ketoacyl-CoA and CoA, respectively. Reaction rates were calculated in the steady-state within the first minute following initiation. All data were fitted to the normal Michaelis-Menten equation using a non-linear regression analysis.

[1] = system: A. eutrophus PhbA and BktB β-ketothiolases; assay: β-Ketothiolase condensation assay with 1-14C-acetyl-CoA (PhbA, BktB); format: biochemical; settings: 0.30 mM acetyl-CoA
Description: As noted above, A. eutrophus can produce P(3HB-co-3HV) copolymer when provided with an appropriate C5 precursor. […] One of these β-ketothiolases, designated BktB herein, was encoded on plasmid pBK6. A. eutrophus BktB was obtained from E. coli DH5α transformed with plasmid pMON25754. pMON25754 was produced from the A. eutrophus pBK6 clone (Slater et al., 1988) by deleting a 5.0 kb XhoI fragment (there is an additional XhoI site approximately 5.0 kb 5′ to the XhoI site shown in FIG. 1 of Slater et al.). The pBK6 clone was produced by Slater et al. (1988) from A. eutrophus H16, i.e., ATCC accession number 17699, which is publicly available from the American Type Culture Collection, 12301 Parklawn Drive, Rockville, Md. 20852. BktB was overexpressed from its native promoter on the high copy plasmid pMON25754 by growing the cells overnight at 37° C. to stationary phase in LB broth containing ampicillin (100 μg/ml). A. eutrophus PhbA was obtained from E. coli DH5α transformed with pMON25636 (FIG. 20) by growing the cells at 37° C. in LB broth containing ampicillin (100 μg/ml) to early log phase and then inducing with IPTG. Cells were harvested after two hours of further growth.
The activity of β-ketothiolases can be assayed in both the condensation and thiolysis directions. However, condensation activity for products that are the result of a mixed condensation of acetyl-CoA and a longer chain acyl-CoA are difficult to measure. This is due to the difficulty in distinguishing between acetoacetyl-CoA, the product of condensing two acetyl-CoA molecules, and the mixed condensation reaction product, both of which form simultaneously. To date, condensation assays have been spectrophotometrically-based, but these are valid only when there is a single acyl-CoA substrate present (i.e., acetyl-CoA) since they cannot discriminate between the products formed. The assay described below represents the first reported assay that permits complete quantitation of all condensation products regardless of the nature of starting substrates.
β-ketothiolase assays designed to measure the condensation activity with acetyl-CoA plus either propionyl-CoA or butyryl-CoA were performed using 1-^14C-labelled acetyl-CoA. Since the equilibrium for the reaction lies heavily toward the starting acyl-CoAs rather than the condensed β-ketoacyl-CoA product, the latter was “pulled” to the corresponding β-hydroxyacyl-CoA using NADH and β-ketoacyl-CoA dehydrogenase. In addition, to avoid the strong feedback inhibition of β-ketothiolase by free CoA, each assay solution contained 5,5′-dithio-bis(2-nitrobenzoic acid) (DTNB) to trap chemically the free CoA produced by the reaction.
The condensation assay mixture (0.5 ml final volume) contained 100 mM KPi, pH 7.8, 0.5 mM NADH, 0.30 mM 1-^14C-acetyl-CoA (0.15 μCi), 5 units β-ketoacyl-CoA dehydrogenase, 0.5 mM DTNB, and variable propionyl- or butyryl-CoA as indicated in Table 5. The reaction was initiated by the addition of β-ketothiolase. Following 20 minutes at 30° C., each reaction mixture was quenched by the addition of 25 μl of 10% formic acid. Thirty μl of 25% H2SO4 were added to 200 μl of quenched reaction mix; this mixture was then incubated at 70° C. for 24 hours to hydrolyze all CoA thioesters to their free acids. Sixty μl of 5 M sodium formate were added to the sample to neutralize the pH, followed by analysis of a 130 μl aliquot using C18-reverse-phase HPLC (0.5×25 cm column). Detection and quantitation were carried out by monitoring flow-through with a Radiomatic flow detector. A gradient elution was employed using aqueous 1% acetic acid (solvent A) and acetonitrile (solvent B). […]

Chain of BktB β-ketothiolase (Q0KBP1 2-394 limits assumed): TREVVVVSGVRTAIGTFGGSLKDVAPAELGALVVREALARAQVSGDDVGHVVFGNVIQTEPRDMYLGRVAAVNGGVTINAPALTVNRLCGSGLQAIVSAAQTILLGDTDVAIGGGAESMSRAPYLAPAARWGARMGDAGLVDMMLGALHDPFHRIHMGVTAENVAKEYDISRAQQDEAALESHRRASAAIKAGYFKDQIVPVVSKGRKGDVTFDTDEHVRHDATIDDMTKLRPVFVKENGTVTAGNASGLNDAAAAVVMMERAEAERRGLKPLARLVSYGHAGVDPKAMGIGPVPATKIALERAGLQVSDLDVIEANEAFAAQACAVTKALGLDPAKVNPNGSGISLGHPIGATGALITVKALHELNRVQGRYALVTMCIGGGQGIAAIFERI

CCC(=O)CC(=O)SCCNC(=O)CCNC(=O)[C@H](O)C(C)(C)COP(=O)(O)OP(=O)(O)OC[C@H]1O[C@@H](n2cnc3c(N)ncnc32)[C@H](O)[C@@H]1OP(=O)(O)O [B-ketovaleryl-CoA]
Km (BktB β-ketothiolase; CoA fixed at 200 μM): 15 ± 1 µM | Vmax (BktB β-ketothiolase; CoA fixed at 200 μM): 236 ± 8 u/mg

CC(C)(COP(=O)(O)OP(=O)(O)OC[C@H]1O[C@@H](n2cnc3c(N)ncnc32)[C@H](O)[C@@H]1OP(=O)(O)O)[C@@H](O)C(=O)NCCC(=O)NCCS [CoA, coenzyme A]
Vmax (BktB β-ketothiolase; β-ketocaproyl-CoA fixed at 60 μM): 98 ± 3 u/mg

CCCC(=O)CC(=O)SCCNC(=O)CCNC(=O)[C@H](O)C(C)(C)COP(=O)(O)OP(=O)(O)OC[C@H]1O[C@@H](n2cnc3c(N)ncnc32)[C@H](O)[C@@H]1OP(=O)(O)O [B-ketocaproyl-CoA]
Km (BktB β-ketothiolase; CoA fixed at 200 μM): 6 ± 0.7 µM | Vmax (BktB β-ketothiolase; CoA fixed at 200 μM): 103 ± 3 u/mg

CC(=O)CC(=O)SCCNC(=O)CCNC(=O)[C@H](O)C(C)(C)COP(=O)(O)OP(=O)(O)OC[C@H]1O[C@@H](n2cnc3c(N)ncnc32)[C@H](O)[C@@H]1OP(=O)(O)O [B-ketobutyryl-CoA]
Km (BktB β-ketothiolase; CoA fixed at 200 μM): 37 ± 3 µM | Vmax (BktB β-ketothiolase; CoA fixed at 200 μM): 122 ± 5 u/mg

B1: PhbA: A. eutrophus PhbA β-ketothiolase obtained from E. coli DH5α transformed with pMON25636 (protein, UniProt P14611 1-393, looked up)
Acetyl-CoA acetyltransferase: MTDVVIVSAARTAVGKFGGSLAKIPAPELGAVVIKAALERAGVKPEQVSEVIMGQVLTAGSGQNPARQAAIKAGLPAMVPAMTINKVCGSGLKAVMLAANAIMAGDAEIVVAGGQENMSAAPHVLPGSRDGFRMGDAKLVDTMIVDGLWDVYNQYHMGITAENVAKEYGITREAQDEFAVGSQNKAEAAQKAGKFDEEIVPVLIPQRKGDPVAFKTDEFVRQGATLDSMSGLKPAFDKAGTVTAANASGLNDGAAAVVVMSAAKAKELGLTPLATIKSYANAGVDPKVMGMGPVPASKRALSRAEWTPQDLDLMEINEAFAAQALAVHQQMGWDTSKVNVNGGAIAIGHPIGASGCRILVTLLHEMKRRDAKKGLASLCIGGGMGVALAVERK
modifications: expressed in E. coli
notes: A. eutrophus PhbA β-ketothiolase obtained from E. coli DH5α transformed with pMON25636
% Turnover C4 Product ([1]; propionyl-CoA 0 mM): 16.9% | % Turnover C4 Product ([1]; propionyl-CoA 0.6 mM): 13.5% | % Turnover C5 Product ([1]; propionyl-CoA 0.6 mM): 0% | % Turnover C4 Product ([1]; propionyl-CoA 1.2 mM): 10.3% | % Turnover C5 Product ([1]; propionyl-CoA 1.2 mM): 0% | % Turnover C4 Product ([1]; propionyl-CoA 2.4 mM): 7.0% | % Turnover C5 Product ([1]; propionyl-CoA 2.4 mM): 0%
